pIC50: −log10 of the molar value. Counter-ions that a name gives are not always drawn. Like-named read-outs stand apart in the source and are kept apart here.
Experiments:
[1] = tested on: HTT mRNA; experiment: RT-qPCR splicing assay, HTT mRNA canonical (CJ) and alternative (AJ) junction; assay type: cell-based, human; conditions: Homo sapiens
Method in brief: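 A673 or K562 cells treated 24 h at 37 °C with 11-point 3-fold dilutions (top final 10 uM, DMSO ≤0.25%). Lysates analysed by one-step RT-qPCR for canonical (CJ) and alternative-exon (AJ) junctions, normalized to GAPDH, GUSB or PPIA. ΔΔCt vs DMSO, RQ = 2^(−ΔΔCt), expressed as percentage response.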

[2] = tested on: MYB; experiment: HiBiT protein abundance assay, MYB (K562 HiBiT knock-in); assay type: cell-based, human; conditions: HiBiT knock-in K562 cells, 24 hours, top dose 10 μM
Method in brief: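 Luminescence readout: Nano-Glo HiBiT lytic detection after 24 h compound exposure of K562 HiBiT knock-in cells, 10000 cells/well. Dosing 10-pt, 3-fold, top 10 μM final. % response vs untreated parental K562 and DMSO controls; 4PL fit, IC50 = concentration giving 50% protein abundance.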

[3] = tested on: Target C; experiment: HiBiT protein abundance assay, Target C (K562 HiBiT knock-in); assay type: cell-based, human; conditions: HiBiT knock-in K562 cells, 24 hours, top dose 10 μM
Method in brief: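 K562 HiBiT knock-in cells (10000/well) were treated 24 h at 37° C with a 10-point 3-fold dilution series (top 10 μM final, ≤0.25% DMSO). HiBiT luminescence was read after lytic LgBiT detection. Percent response used unmodified K562 and DMSO-treated knock-in controls, and IC50 came from a four-parameter fit at 50% of untreated.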

[4] = tested on: K562 cells; experiment: Cell Titer Glo 2.0 cell viability (toxicity) assay, K562; conditions: 500 cells/well, 72 hours
[5] = RT-qPCR, HTT alternative junction mRNA increase, read-out: HTT AJ (increase in alternative junction mRNA, AC50)
[6] = RT-qPCR, HTT canonical junction mRNA decrease, read-out: HTT CJ (decrease in canonical junction mRNA, IC50)
[7] = canonical junction qPCR panel, Table 4, read-out: HTT IC50 (decrease in CJ mRNA levels)
[8] = HTT alternative junction mRNA, RT-qPCR, read-out: HTT AJ (increase in AJ mRNA, AC50)
[9] = HTT canonical junction mRNA, RT-qPCR, read-out: HTT CJ (decrease in CJ mRNA levels, IC50)

Row | pIC50 [1, 6] | pIC50 [1, 7] | pIC50 [2] | pIC50 [3] | pIC50 [1, 9] | SMILES | AC50 [1, 5] | Effect of Exemplary Compounds on Cell Viability, K562 [4] | AC50 [1, 8]
1 | > 7.00 | > 7.00 | > 7.00 | 6.00 to 7.00 |  | C[C@H]1CN(c2cc(F)c3nc(-c4cc(F)c5nn(C)cc5c4)ccc3c2)C[C@H](C)N1 (single isomer, unassigned) [Compound 760] | 100 to 1000 nM | B (B represents 100-1000 nM) | 
2 | 6.00 to 7.00 | 6.00 to 7.00 | > 7.00 | 6.00 to 7.00 |  | C[C@H]1CN(c2cc(F)c3nc(-c4cc5cn(C)nc5cc4O)ccc3c2)C[C@H](C)N1 (single isomer, unassigned) [Compound 770] | 100 to 1000 nM | B (B represents 100-1000 nM) | 
3 | 6.00 to 7.00 | 6.00 to 7.00 | 6.00 to 7.00 | 6.00 to 7.00 |  | Cc1cn2nc(-c3ccc4cc(N5C[C@H](C)N[C@@H](C)C5)cc(F)c4n3)cc(C)c2n1 (single isomer, unassigned) [Compound 799] | 100 to 1000 nM | B (B represents 100-1000 nM) | 
4 | > 7.00 | > 7.00 | > 7.00 | > 7.00 |  | Cc1c(O)c(-c2ccc3cc(N4C[C@H](C)N[C@@H](C)C4)cc(F)c3n2)cc2cn(C)nc12 (single isomer, unassigned) [Compound 800, 2,2,2-trifluoroacetate] | < 100 nM | A (A represents <100 nM) | 
5 | < 5.00 | < 5.00 | > 7.00 | 5.00 to 6.00 |  | Cc1nc(-c2cc3cn(C)nc3cc2O)nc2ccc(N3C[C@H](C)N[C@@H](C)C3)cc12 (single isomer, unassigned) [Compound 806] | 1000 to 10000 nM | B (B represents 100-1000 nM) | 
6 | < 5.00 | < 5.00 | > 7.00 | < 5.00 |  | Cc1nc(-c2cc3cn(C)nc3c(C)c2O)nc2ccc(N3C[C@H](C)N[C@@H](C)C3)cc12 (single isomer, unassigned) [Compound 807] | 1000 to 10000 nM | B (B represents 100-1000 nM) | 
7 |  | 5.00 to 6.00 | 5.00 to 6.00 | 5.00 to 6.00 | 5.00 to 6.00 | Cn1cc2cc(-c3cc4ccc(C5CCNCC5)nc4cn3)c(O)cc2n1 [Compound 104] |  | C (C represents 1000-9999 nM) | 1000 to 10000 nM
8 |  | > 7.00 | > 7.00 | > 7.00 | > 7.00 | Cn1cc2cc(-c3ccc4nc(N5CC[C@H](NC6CCC6)C5)ccc4n3)c(O)cc2n1 [Compound 156] |  | B (B represents 100-1000 nM) | < 100 nM
9 |  | > 7.00 | > 7.00 | > 7.00 | > 7.00 | CC(C)N[C@H]1CCN(c2ccc3nc(-c4cc5cn(C)nc5cc4O)ccc3n2)C1 [Compound 171] |  | B (B represents 100-1000 nM) | < 100 nM
10 |  | > 7.00 | 6.00 to 7.00 | > 7.00 | > 7.00 | Cc1cn2nc(-c3ccc4nc(N5CCC(NC(C)(C)C)C5)ccc4n3)cc(C)c2n1 (stereo not drawn) [Compound 186] |  | B (B represents 100-1000 nM) | < 100 nM
11 |  | > 7.00 | > 7.00 | > 7.00 | > 7.00 | Cn1cc2cc(-c3ccc4nc(N5CC[C@H](NCC6CC6)C5)ccc4n3)c(O)cc2n1 [Compound 194] |  | B (B represents 100-1000 nM) | < 100 nM
12 | 5.00 to 6.00 | 5.00 to 6.00 | > 7.00 | 5.00 to 6.00 |  | CN(C)C1CCN(c2ccc3nc(-c4cc5cn(C)nc5c(F)c4O)ncc3c2)CC1 [Compound 757, 5-{6-[4-(dimethylamino)piperidin-1-yl]quinazolin-2-yl}-7-fluoro-2-methylindazol-6-ol] | 1000 to 10000 nM | A (A represents <100 nM) | 
13 | 6.00 to 7.00 | 6.00 to 7.00 | 6.00 to 7.00 | 6.00 to 7.00 |  | C[C@@H]1CN(c2cc(F)c3nc(-c4cc(F)c5nn(C)cc5c4)ccc3c2)C[C@H](C)N1 [Compound 758, 6-[(3R,5S)-3,5-dimethylpiperazin-1-yl]-8-fluoro-2-(7-fluoro-2-methylindazol-5-yl)quinoline] | 1000 to 10000 nM | B (B represents 100-1000 nM) | 
14 | > 7.00 | > 7.00 | > 7.00 | > 7.00 |  | C[C@@H]1CN(c2cc(F)c3nc(-c4cc5cn(C)nc5c(F)c4O)ccc3c2)C[C@H](C)N1 [Compound 763, 5-{6-[(3R,5S)-3,5-dimethylpiperazin-1-yl]-8-fluoroquinolin-2-yl}-7-fluoro-2-methylindazol-6-ol hydrochloride] | 100 to 1000 nM | A (A represents <100 nM) | 
15 | 5.00 to 6.00 | 5.00 to 6.00 | > 7.00 | 5.00 to 6.00 |  | C[C@@H]1CN(c2cc(F)c3nc(-c4cc5cn(C)nc5cc4O)ccc3c2)C[C@H](C)N1 [Compound 768, 5-{6-[(3R,5S)-3,5-dimethylpiperazin-1-yl]-8-fluoroquinolin-2-yl}-2-methylindazol-6-ol hydrochloride] | 1000 to 10000 nM | C (C represents 1000-9999 nM) | 
16 | 5.00 to 6.00 | 5.00 to 6.00 | > 7.00 | 6.00 to 7.00 |  | Cc1cn2cc(-c3ncc4cc(N5C[C@@H](C)N[C@@H](C)C5)ccc4n3)cc(F)c2n1 [Compound 773, 6-[(3R,5S)-3,5-dimethylpiperazin-1-yl]-2-{8-fluoro-2-methylimidazo[1,2-a]pyridin-6-yl}quinazoline] | 1000 to 10000 nM | B (B represents 100-1000 nM) | 
17 | 5.00 to 6.00 | 5.00 to 6.00 | > 7.00 | 6.00 to 7.00 |  | Cc1cn2cc(-c3nc(C(=O)NC4CCC4)c4cc(N5C[C@@H](C)N[C@@H](C)C5)ccc4n3)cc(F)c2n1 [Compound 779, N-cyclobutyl-6-[(3R,5S)-3,5-dimethylpiperazin-1-yl]-2-{8-fluoro-2-methylimidazo[1,2-a]pyridin-6-yl}quinazoline-4-carboxamide] | 1000 to 10000 nM | A (A represents <100 nM) | 
18 | 6.00 to 7.00 | 6.00 to 7.00 | > 7.00 | 6.00 to 7.00 |  | Cc1c(O)c(-c2nc(C(N)=O)c3cc(N4C[C@H](C)N[C@@H](C)C4)ccc3n2)cc2cn(C)nc12 [Compound 796] | 100 to 1000 nM | A (A represents <100 nM) | 
19 | 5.00 to 6.00 | 5.00 to 6.00 | > 7.00 | 5.00 to 6.00 |  | C[C@H]1CN(c2ccc3nc(-c4cc5cn(C)nc5cc4O)nc(C(N)=O)c3c2)C[C@H](C)N1 [Compound 797] | 100 to 1000 nM | A (A represents <100 nM) | 
20 | 6.00 to 7.00 | 6.00 to 7.00 | > 7.00 | 6.00 to 7.00 |  | Cc1cn2cc(-c3ncc4cc(N5C[C@H](C)N[C@@H](C)C5)ccc4n3)cc(F)c2n1 [Compound 803, 6-[(3S,5S)-3,5-dimethylpiperazin-1-yl]-2-{8-fluoro-2-methylimidazo[1,2-a]pyridin-6-yl}quinazoline] | 100 to 1000 nM | A (A represents <100 nM) | 
21 | > 7.00 | > 7.00 | > 7.00 | 6.00 to 7.00 |  | Cc1c(O)c(-c2ccc3cc(N4CCNC5(CC5)C4)cc(F)c3n2)cc2cn(C)nc12 [Compound 805, 5-(6-{4,7-diazaspiro[2.5]octan-7-yl}-8-fluoroquinolin-2-yl)-2,7-dimethylindazol-6-ol] | 100 to 1000 nM | B (B represents 100-1000 nM) | 

— patent US20250092065A1, “2-(INDAZOL-5-YL)-6-(PIPERIDIN-4-YL)-1,7-NAPHTHYRIDINE DERIVATIVES AND RELATED COMPOUNDS AS MODULATORS FOR SPLICING NUCLEIC ACIDS AND FOR THE TREATMENT OF PROLIFERATIVE DISEASES” (REMIX THERAPEUTICS INC., priority 2022, published 2025)
